Among the data in patent publication US9108936B2, “Substituted 4-aminobenzamides as KCNQ2/3 modulators” (GRUENENTHAL GMBH, priority 2012, dated 2015) are Emax and EC50 values, retold here.

For the test, the target named is T1, KCNQ2/3 channels (Homo sapiens, UniProt O43525+O43526).
T1 construct: expressed in transfected cells; host or cells: CHO-K1
Put plainly: Fluorescence assay using a voltage sensitive dye (fluorimetry). In kind it is cell-based. The note with it: CHO-K1 cells expressing KCNQ2/3; for Emax: plateau effect relative to saturated Retigabine (50 μM), read-out: Fluorimetry % efficacy (retigabine = 100%); for EC50: voltage-sensitive dye, KCl depolarization, read-out: Fluorimetry EC50/IC50. From the text:
Method I. Fluorescence Assay Using a Voltage Sensitive Dye (Fluorimetry)
The modulation of the KCNQ opening state (and consequently the voltage potential of a cell) by test compounds such as compounds according to the present invention results in an increased or reduced amount of a voltage-sensitive dye in the cytoplasm of the cells tested. These voltage-sensitive dyes are fluorescent dyes and, therefore, are forming the link between cell potential influenced by KCNQ modulation and fluorescence intensity. A KCNQ agonist leads to an opening of the channel, potassium and dye efflux, a following hyperpolarization and a reduction of the inner fluorescence intensity in a kinetic protocol. If applying an ion jump by KCl depolarization, KCNQ agonists increase the ΔF/F value. An antagonist performs vice versa, respectively.
The ‘fluorimetry EC50’ is the half maximum effective concentration (EC50), where the concentration of a drug/compound induces a response halfway between the baseline and maximum plateau effect. In other words, said value represents the concentration of a compound, where 50% of its maximal effect in the fluorimetric assay is observed if the substance concentration is graphed against the corresponding ΔF/F values (for which the calculation method is described below). Therefore, ‘fluorimetry EC50’ is a measure for the compound potency. The compound efficacy is mirrored by ‘fluorimetry % efficacy’ (‘% Efficacy’) and refers to the maximum response achievable by the test compound, i.e. the plateau effect. This drug's plateau effect is related to the plateau effect, which can be achieved by applying a saturated concentration of a reference compound, e.g. Retigabine (50 μM), in independent wells of the same experimental plate or series. A compound showing 100% efficacy is as efficacious as the reference compound (Retigabine) with a saturated concentration.
[…] CHO-K1 cells expressing KCNQ2/3 channels are cultivated adherently at 37° C., 5% CO2 and 95% humidity in cell culture bottles (e.g. 80 cm^2 TC flasks, Nunc) with DMEM-high glucose (Sigma Aldrich, D7777) including 10% FCS (PAN Biotech, e.g. 3302-P270521) or alternatively MEM Alpha Medium (1×, liquid, Invitrogen, #22571), 10% fetal calf serum (FCS) (Invitrogen, #10270-106, heat-inactivated) and the necessary selection antibiotics.
Before being sown out for the measurements, the cells are washed with 1× DPBS buffer Ca^2+/Mg^2+-free (e.g. Invitrogen, #14190-094) and detached from the bottom of the culture vessel by using Accutase (PAA Laboratories, #L11-007) (incubation with Accutase for 15 min at 37° C.). The cell number is determined using a CASY™ cell counter (TCC, Schärfe System). Depending on the optimal density for each individual cell line, 20,000-30,000 cells/well/100 μl are seeded onto 96-well Corning™ CellBIND™ assay plates (Flat Clear Bottom Black Polystyrene Microplates, #3340). Freshly seeded cells are then left to settle for one hour at room temperature, followed by incubation for 24 hours at 37° C., 5% CO2 and 95% humidity.
The voltage-sensitive fluorescent dye from the Membrane Potential Assay Kit (Red™ Bulk format part R8123 for FLIPR, MDS Analytical Technologies™) is prepared by dissolving the contents of one vessel Membrane Potential Assay Kit Red Component A in 200 ml of extracellular buffer (ES buffer, 120 mM NaCl, 1 mM KCl, 10 mM HEPES, 2 mM CaCl2, 2 mM MgCl2, 10 mM glucose; pH 7.4). After removal of the nutrient medium, the cells are washed once with 200 μl of ES buffer, then loaded for 45 min at room temperature in 100 μl of dye solution in the dark.
Fluorescence measurements are carried out in a BMG Labtech FLUOstar™, BMG Labtech NOVOstar™ or BMG Labtech POLARstar™ instrument (525 nm excitation, 560 nm emission, Bottom Read mode). […]

Regarding `CCSc1cc(N2CCOCC2)cc(C)c1C(=O)NCc1cccc(F)c1` [Example 1, 2-Ethylsulfanyl-N-[(3-fluorophenyl)-methyl]-6-methyl-4-morpholin-4-yl-benzamide], the Emax is 163% and the EC50 turned out to be 1480 nM.
In the case of `CCSc1cc(N2CCOCC2)cc(C)c1C(=O)NCc1ccc(Cl)cc1` [Example 2, N-[(4-Chlorophenyl)-methyl]-2-ethylsulfanyl-6-methyl-4-morpholin-4-yl-benzamide], the Emax worked out at 152% and the EC50 was 483 nM.
As to `CCSc1cc(N2CCOCC2)cc(C)c1C(=O)NCCCC(C)(C)C` [Example 3, N-(4,4-Dimethyl-pentyl)-2-ethylsulfanyl-6-methyl-4-morpholin-4-yl-benzamide], the Emax is 220% and the EC50 is 335 nM.
Turning to `CCSc1cc(N2CCOC[C@H]2C)cc(C)c1C(=O)NCc1ccc(Cl)cc1` [Example 4, N-[(4-Chlorophenyl)-methyl]-2-ethylsulfanyl-6-methyl-4-[(3R)-3-methyl-morpholin-4-yl]-benzamide], the Emax came out at 200% and the EC50 turned out to be 260 nM.
As to `CCSc1cc(N2CCOC[C@H]2C)cc(C)c1C(=O)NCCCC(C)(C)C` [Example 5, N-(4,4-Dimethyl-pentyl)-2-ethylsulfanyl-6-methyl-4-[(3R)-3-methyl-morpholin-4-yl]-benzamide], the Emax came out at 246% and the EC50 came out at 108 nM.
For `CC[S+]([O-])c1cc(N2CCOCC2)cc(C)c1C(=O)NCCCC(C)(C)C` (centres unmarked) [Example 7, N-(4,4-Dimethyl-pentyl)-2-(ethylsulfinyl)-6-methyl-4-morpholin-4-yl-benzamide] the same measures were 66% and 8800 nM.
The matching figures for `CCS(=O)(=O)c1cc(N2CCOCC2)cc(C)c1C(=O)NCc1ccc(Cl)cc1` [Example 8, N-[(4-Chlorophenyl)-methyl]-2-(ethylsulfonyl)-6-methyl-4-morpholin-4-yl-benzamide]: 88% and 5560 nM.
For `CCS(=O)(=O)c1cc(N2CCOCC2)cc(C)c1C(=O)NCCCC(C)(C)C` [Example 9, N-(4,4-Dimethyl-pentyl)-2-(ethylsulfonyl)-6-methyl-4-morpholin-4-yl-benzamide] the same measures were 65% and 9300 nM.
For the compound `COc1cc(N2CCOCC2)cc(C)c1C(=O)NCc1ccc(Cl)cc1` [Example 10, N-[(4-Chlorophenyl)-methyl]-2-methoxy-6-methyl-4-morpholin-4-yl-benzamide], the Emax turned out to be 147% and the EC50 is 1640 nM.
Consider `CCOc1cc(N2CCOCC2)cc(C)c1C(=O)NCc1ccc(Cl)cc1` [Example 11, N-[(4-Chlorophenyl)-methyl]-2-ethoxy-6-methyl-4-morpholin-4-yl-benzamide], for which the Emax stood at 141% and the EC50 turned out to be 1350 nM.
Take `CCc1cc(N2CCOCC2)cc(C)c1C(=O)NCc1ccc(Cl)cc1` [Example 12, N-[(4-Chlorophenyl)-methyl]-2-ethyl-6-methyl-4-morpholin-4-yl-benzamide]: the Emax was 169% and the EC50 came to 369 nM.
As to `CCCc1cc(N2CCOCC2)cc(C)c1C(=O)NCc1ccc(Cl)cc1` [Example 13, N-[(4-Chlorophenyl)-methyl]-2-methyl-4-morpholin-4-yl-6-propyl-benzamide], the Emax came out at 183% and the EC50 amounted to 217 nM.
Take `Cc1cc(N2CCOCC2)cc(C2CC2)c1C(=O)NCc1ccc(Cl)cc1` [Example 15, N-[(4-Chlorophenyl)-methyl]-2-cyclopropyl-6-methyl-4-morpholin-4-yl-benzamide]: the Emax turned out to be 170% and the EC50 came to 552 nM.
Regarding `Cc1cc(N2CCOCC2)cc(C2CCCC2)c1C(=O)NCc1ccc(Cl)cc1` [Example 16, N-[(4-Chlorophenyl)-methyl]-2-cyclopentyl-6-methyl-4-morpholin-4-yl-benzamide], the Emax stood at 194% and the EC50 was 33 nM.
Regarding `Cc1cc(N2CCOCC2)cc(C2CC2)c1C(=O)NCc1ccc(F)cc1` [Example 18, 2-Cyclopropyl-N-[(4-fluorophenyl)-methyl]-6-methyl-4-morpholin-4-yl-benzamide], the Emax came out at 169% and the EC50 came to 982 nM.
`Cc1cc(N2CCOCC2)cc(C(F)(F)F)c1C(=O)NCc1ccc(Cl)cc1` [Example 19, N-[(4-Chlorophenyl)-methyl]-2-methyl-4-morpholin-4-yl-6-(trifluoromethyl)-benzamide]: the Emax was determined as 185% and the EC50 is 400 nM.
As for `Cc1cc(N2CCOCC2)cc(C(F)F)c1C(=O)NCc1ccc(Cl)cc1` [Example 20, N-[(4-Chlorophenyl)-methyl]-2-(difluoro-methyl)-6-methyl-4-morpholin-4-yl-benzamide], the Emax is 144% and the EC50 is 708 nM.
Consider `C=C(C)c1cc(N2CCOCC2)cc(C)c1C(=O)NCc1ccc(C(F)(F)F)cc1` [Example 21, 2-Isopropenyl-6-methyl-4-morpholin-4-yl-N-[[4-(trifluoromethyl)-phenyl]-methyl]-benzamide], for which the Emax was found to be 118% and the EC50 stood at 626 nM.
As for `Cc1cc(N2CCOCC2)cc(C(C)C)c1C(=O)NCc1ccc(C(F)(F)F)cc1` [Example 22, 2-Isopropyl-6-methyl-4-morpholin-4-yl-N-[[4-(trifluoromethyl)-phenyl]-methyl]-benzamide], the Emax was determined as 148% and the EC50 was found to be 184 nM.
On to `Cc1cc(N2CCOCC2)cc(C(C)C)c1C(=O)NCc1ccc(OC(F)(F)F)cc1` [Example 23, 2-Isopropyl-6-methyl-4-morpholin-4-yl-N-[[4-(trifluoromethyloxy)-phenyl]-methyl]-benzamide], for which the Emax was found to be 161% and the EC50 came out at 139 nM.
Regarding `Cc1cc(N2CCOCC2)cc(C2CC2)c1C(=O)NCc1ccc(C(F)(F)F)cc1` [Example 24, 2-Cyclopropyl-6-methyl-4-morpholin-4-yl-N-[[4-(trifluoromethyl)-phenyl]-methyl]-benzamide], the Emax amounted to 134% and the EC50 came to 693 nM.
Consider `Cc1cc(N2CCOCC2)cc(C2CC2)c1C(=O)NCc1ccc(OC(F)(F)F)cc1` [Example 25, 2-Cyclopropyl-6-methyl-4-morpholin-4-yl-N-[[4-(trifluoromethyloxy)-phenyl]-methyl]-benzamide], for which the Emax is 144% and the EC50 came out at 355 nM.
On to `Cc1cc(N2CCCC2)cc(C(F)(F)F)c1C(=O)NCc1cccc(F)c1` [Example 26, N-[(3-Fluorophenyl)-methyl]-2-methyl-4-pyrrolidin-1-yl-6-(trifluoromethyl)-benzamide], for which the Emax worked out at 156% and the EC50 was found to be 453 nM.
On to `Cc1cc(N2CCCCC2)cc(C(F)(F)F)c1C(=O)NCc1cccc(F)c1` [Example 27, N-[(3-Fluorophenyl)-methyl]-2-methyl-4-piperidin-1-yl-6-(trifluoromethyl)-benzamide], for which the Emax came out at 197% and the EC50 was found to be 673 nM.
For `Cc1cc(N2CCOCC2)cc(C2CC2)c1C(=O)NCC[C@@H](O)C(C)(C)C` [Example 28, 2-Cyclopropyl-N-[(3R)-3-hydroxy-4,4-dimethyl-pentyl]-6-methyl-4-morpholin-4-yl-benzamide], the Emax came out at 155% and the EC50 was found to be 4660 nM.
